Experimental data from patent US20250089717A1, “FUNGICIDAL HALOMETHYL KETONES, HYDRATES AND ENOL ETHERS AND THEIR MIXTURES” (FMC CORPORATION, priority 2023, published 2025).

Tested on: Phakopsora pachyrhizi
Assay: Test A: preventive spray on soybean seedlings, Asian soybean rust, visual disease rating
Format: in vivo
Details: rate 10 ppm
From the text: General protocol for preparing test suspensions for Test A: the test compounds were first dissolved in acetone in an amount equal to 3% of the final volume and then suspended at the desired concentration (in ppm) in acetone and purified water (50/50 mix by volume) containing 250 ppm of the surfactant PEG400 (polyhydric alcohol esters). The resulting test suspensions were then used in Test A.
The test solution was sprayed to the point of run-off on soybean seedlings. The following day the seedlings were inoculated with a spore suspension of Phakopsora pachyrhizi (the causal agent of Asian soybean rust) and incubated in a saturated atmosphere at 22° C. for 24 h and then moved to a growth chamber at 22° C. for 8 days, after which time visual disease ratings were made.
A rating of 100 indicates 100% disease control and a rating of 0 indicates no disease control (relative to the controls).

| SMILES | Test A rating (100 = 100% disease control, 0 = no disease control relative to the controls) [%] |
| --- | --- |
| CCO/C(=C\Oc1ccc(Cn2cc(COC(=O)C(Cl)Cl)cn2)cc1)C(F)(F)F [compound 16] | 100 |
| CCO/C(=C\Oc1ccc(Cn2cc(C(=O)NOCCO)cn2)cc1)C(F)(F)F [compound 67] | 100 |
| CCO/C(=C\Oc1ccc(Cn2cc(COCC3CC3)cn2)c(F)c1)C(F)(F)F [Compound 68] | 100 |
| CCO/C(=C\Oc1ccc(Cn2cc(COC(=O)C(CC)CC)cn2)cc1)C(F)(F)F [compound 36] | 100 |
| CCO/C(=C\Oc1ccc(Cn2cc(COC(=O)OC)cn2)cc1)C(F)(F)F [Compound 52, 1-[[4-[[(1Z)-2-ethoxy-3,3,3-trifluoro-1-propen-1-yl]oxy]phenyl]methyl]-1H-pyrazol-4-yl]methyl methyl carbonate] | 100 |
| CCO/C(=C\Oc1ccc(Cn2cc(COC(=O)CC#N)cn2)cc1)C(F)(F)F [compound 24] | 100 |
| CCO/C(=C\Oc1ccc(Cn2cc(COC(=O)COC)cn2)c(F)c1F)C(F)(F)F [Compound 74] | 100 |
| C=CCOC(=O)Cc1cnn(Cc2ccc(O/C=C(\OCC)C(F)(F)F)cc2)c1 [compound 14] | 96 |
| CCO/C(=C\Oc1ccc(Cn2cc(C(=O)NOCC3CC3)cn2)cc1)C(F)(F)F [compound 25] | 100 |
| C=CCONC(=O)c1cnn(CCCc2ccc(O/C=C(\OCC)C(F)(F)F)cc2)c1 [compound 60] | 96 |
| CCO/C(=C\Oc1ccc(Cn2cc(COC(=O)C(F)(F)Cl)cn2)cc1)C(F)(F)F [compound 19] | 100 |
| CCOC(=O)OCc1cnn(Cc2ccc(OCC3(C(F)(F)F)OCCO3)cc2)c1 [Compound 85] | 86 |
| C=CCON(CCCC)C(=O)c1cnn(Cc2ccc(O/C=C(\OCC)C(F)(F)F)cc2)c1 [compound 43] | 87 |
| CCO/C(=C\Oc1ccc(Cn2cc(COC(=O)COC)nn2)cc1)C(F)(F)F [Compound 10] | 0 |

Same assay, conditions: rate 10 ppm, read-out: Test A rating (100 = 100% disease control, 0 = no disease control relative to the controls)

| SMILES | pest or weed control at 10 ppm [%] |
| --- | --- |
| CCO/C(=C\Oc1ccc(Cn2cc(COC(C)=O)cn2)cc1)C(F)(F)F [Compound 22, [1-[[4-[[(1Z)-2-ethoxy-3,3,3-trifluoro-1-propen-1-yl]oxy]phenyl]methyl]-1H-pyrazol-4-yl]methyl acetate] | 100 |
| C=CCO/N=C(/OCC)c1cnn(Cc2cccc(O/C=C(\OCC)C(F)(F)F)c2)c1 [compound 113] | 87 |
| CCOC(=S)c1cnn(Cc2ccc(O/C=C(\OCC)C(F)(F)F)cc2)c1 [Compound 7, O-ethyl 1-[[4-[[(1Z)-2-ethoxy-3,3,3-trifluoro-1-propen-1-yl]oxy]phenyl]methyl]-1H-pyrazole-4-carbothioate] | 100 |
| C#CCON(C)C(=O)c1cccc(Cc2ccc(O/C=C(\OCC)C(F)(F)F)cc2)n1 [Compound 121, 2-[[4-[[(1Z)-2-ethoxy-3,3,3-trifluoro-1-propen-1-yl]oxy]phenyl]methyl]-N-methyl-N-(2-propyn-1-yloxy)-6-pyridinecarboxamide] | 100 |
| CCO/C(=C\Oc1ccc(Cc2cccc(C(=O)NOCC3CC3)n2)cc1)C(F)(F)F [Compound 124, 2-[[4-[[(1Z)-2-ethoxy-3,3,3-trifluoro-1-propen-1-yl]oxy]phenyl]methyl]-N-(cyclopropylmethoxy)-6-pyridinecarboxamide] | 100 |
| CCO/C(=C\Oc1ccc(Cn2cc(COC(=O)CC(C)C)cn2)cc1)C(F)(F)F [Compound 27, [1-[[4-[[(1Z)-2-ethoxy-3,3,3-trifluoro-1-propen-1-yl]oxy]phenyl]methyl]-1H-pyrazol-4-yl]methyl 3-methylbutanoate] | 100 |
| O=C(OCc1cnn(Cc2ccc(OCC3(C(F)(F)F)OCCO3)cc2)c1)C1CCCC1 [Compound 4, [1-[[4-[[2-(trifluoromethyl)-1,3-dioxolan-2-yl]methoxy]phenyl]methyl]-1H-pyrazol-4-yl]methyl cyclopentanecarboxylate] | 90 |

Same assay, conditions: rate 50 ppm

| SMILES | Test A rating (100 = 100% disease control, 0 = no disease control relative to the controls) [%] |
| --- | --- |
| COCC(=O)OCc1cnn(Cc2ccc(OCC3(C(F)(F)F)OCCO3)cc2)c1 [Compound 86] | 100 |
| O=C(CC(F)(F)F)OCc1cnn(Cc2ccc(OCC3(C(F)(F)F)OCCO3)cc2)c1 [Compound 93] | 100 |
| COCCC(=O)OCc1cnn(Cc2ccc(OCC3(C(F)(F)F)OCCO3)cc2)c1 [Compound 87] | 100 |
| CC(=O)OCc1cnn(Cc2ccc(OCC3(C(F)(F)F)OCCO3)cc2)c1 [Compound 90] | 100 |
| CCO/C(=C\Oc1ccc(Cn2cc(COC(=O)N(C)C)cn2)cc1)C(F)(F)F [compound 8] | 60 |
